The text below walks through data of patent US20100256357A1, “HETEROCYCLES USEFUL AS INHIBITORS OF CARBONIC ANHYDRASE” (Agouron Pharmaceuticals, Inc., priority 2006, published 2010).

In the test the target is T1, human CA-II (Homo sapiens, UniProt P00918).
T1 construct: purchased Sigma-Aldrich C6165
Description: Carbonic Anhydrase-II (CA-II) Fluorescence Polarization Tight Binding Assay-Kd Determination. Particulars: inhibitor concentration 2.5 nM. The protocol:
Assays were conducted in a final volume of 100 μL in 50 mM Tris/HCl (pH 7.6), 100 mM Na2SO4 and 0.005% Tween-20 in a 96-well black assay plate. […] The assay plate was
The Kd binding was calculated using GraphPad Prism and Morrison tight binding ligand equation.
Background: Polarisation of emitted light reports the rotation of a fluorescent probe.
What is called inhibition is how much of the control response was suppressed. With `NS(=O)(=O)c1ccc(-n2nc(CN[C@@H]3COC[C@@H]3C3CC3)nc2Cc2ccccc2)c(F)c1` [Example T-77, 4-[5-benzyl-3-({[(3S4R)-4-cyclopropyltetrahydrofuran-3-yl]amino}methyl)-1H-124-triazol-1-yl]-3-fluorobenzenesulfonamide], the inhibition at 0.0025 µM is 50%. The same measure for `CC(C)OCCNCc1nc(Cc2ccccc2)n(-c2ccc(S(N)(=O)=O)cc2F)n1` [Example T-79, 4-(5-benzyl-3-{[(2-isopropoxyethyl)amino]methyl}-1H-124-triazol-1-yl)-3-fluorobenzenesulfonamide]: 44%; for `NS(=O)(=O)c1ccc(-n2nc(CNCC3(c4ccccc4)CC3)nc2Cc2ccccc2)c(F)c1` [Example T-45, 4-[5-benzyl-3-({[(1-phenylcyclopropyl)methyl]amino}methyl)-1H-124-triazol-1-yl]-3-fluorobenzenesulfonamide]: 53%. `NS(=O)(=O)c1ccc(-n2nc(CN[C@H]3CCCC[C@H]3O)nc2Cc2ccccc2)c(F)c1` [Example T-53, 4-[5-benzyl-3-({[(1S2R)-2-hydroxycyclohexyl]amino}methyl)-1H-124-triazol-1-yl]-3-fluorobenzenesulfonamide] returned an inhibition at 0.0025 µM of 75%. For `NS(=O)(=O)c1ccc(-n2nc(CNC3CCCCCC3)nc2Cc2ccccc2)c(F)c1` [Example T-57, 4-(5-benzyl-3-[(cycloheptylamino)methyl]-1H-124-triazol-1-yl}-3-fluorobenzenesulfonamide] the value was 68%. The same measure for `C[C@@H](NCc1nc(Cc2ccccc2)n(-c2ccc(S(N)(=O)=O)cc2F)n1)c1ccccc1` [Example T-65]: 58%; for `NS(=O)(=O)c1ccc(-n2nc(CNCCOc3ccccc3F)nc2Cc2ccccc2)c(F)c1` [Example T-54]: 38%. The same measure for `NS(=O)(=O)c1ccc(-n2nc(CNC[C@@H](O)c3ccccc3)nc2Cc2ccccc2)c(F)c1` [Example T-46, 4-[5-benzyl-3-({[(2S)-2-hydroxy-2-phenylethyl]amino}methyl)-1H-124-triazol-1-yl]-3-fluorobenzenesulfonamide]: 57%; for `C[C@@H](NCc1nc(Cc2ccccc2)n(-c2ccc(S(N)(=O)=O)cc2F)n1)[C@@H](O)c1ccccc1` [Example T-43, 4-[5-benzyl-3-({[(1R2S)-2-hydroxy-1-methyl-2-phenylethyl]amino}methyl)-1H-124-triazol-1-yl]-3-fluorobenzenesulfonamide]: 41%.

On to `C[C@H](CNCc1nc(Cc2ccccc2)n(-c2ccc(S(N)(=O)=O)cc2F)n1)c1ccccc1` [Example T-52, 4-[5-benzyl-3-({[(2S)-2-phenylpropyl]amino}methyl)-1H-124-triazol-1-yl]-3-fluorobenzenesulfonamide], for which the inhibition at 0.0025 µM turned out to be 39%. The same measure for `NS(=O)(=O)c1ccc(-n2nc(CNCc3cc(F)ccc3F)nc2Cc2ccccc2)c(F)c1` [Example T-60, 4-(5-benzyl-3-{[(25-difluorobenzyl)amino]methyl}-1H-124-triazol-1-yl)-3-fluorobenzenesulfonamide]: 57%; for `COC[C@@H](NCc1nc(Cc2ccccc2)n(-c2ccc(S(N)(=O)=O)cc2F)n1)c1ccccc1` [Example T-47, 4-[5-benzyl-3-({[(1S)-2-methoxy-1-phenylethyl]amino}methyl)-1H-124-triazol-1-yl]-3-fluorobenzenesulfonamide]: 41%; for `NS(=O)(=O)c1ccc(-n2nc(CNCCc3cccc(F)c3)nc2Cc2ccccc2)c(F)c1` [Example T-48, 4-[5-benzyl-3-({[2-(3-fluorophenyl)ethyl]amino}methyl)-1H-124-triazol-1-yl]-3-fluorobenzenesulfonamide]: 50%.

In turn, `NS(=O)(=O)c1ccc(-n2nc(CN3CCC[C@@H](O)C3)nc2Cc2ccccc2)c(F)c1` [Example T-39, 4-(5-benzyl-3-{[(3R)-3-hydroxypiperidin-1-yl]methyl}-1H-124-triazol-1-yl)-3-fluorobenzenesulfonamide] came in with an inhibition at 0.0025 µM of 65%. Regarding `NS(=O)(=O)c1ccc(-n2nc(CNCCc3ccccc3)nc2Cc2ccccc2)c(F)c1` [Example T-61, 4-(5-benzyl-3-{[(2-phenylethyl)amino]methyl}-1H-124-triazol-1-yl)-3-fluorobenzenesulfonamide], the inhibition at 0.0025 µM is 40%.

The compound `NS(=O)(=O)c1ccc(-n2nc(CNCCOc3ccccc3)nc2Cc2ccccc2)c(F)c1` [Example T-64, 4-(5-benzyl-3-{[(2-phenoxyethyl)amino]methyl}-1H-124-triazol-1-yl)-3-fluorobenzenesulfonamide] returned an inhibition at 0.0025 µM of 47%. `CN(CCn1cccn1)Cc1nc(Cc2ccccc2)n(-c2ccc(S(N)(=O)=O)cc2F)n1` [Example T-38, 4-[5-benzyl-3-({methyl[2-(1H-pyrazol-1-yl)ethyl]amino}methyl)-1H-124-triazol-1-yl]-3-fluorobenzenesulfonamide] displayed an inhibition at 0.0025 µM of 54%.

As to `NS(=O)(=O)c1ccc(-n2nc(CNCCc3ccccc3F)nc2Cc2ccccc2)c(F)c1` [Example T-58, 4-[5-benzyl-3-({[2-(2-fluorophenyl)ethyl]amino}methyl)-1H-124-triazol-1-yl]-3-fluorobenzenesulfonamide], at 0.0025 µM the inhibition was 51%. `NS(=O)(=O)c1ccc(-n2nc(CN[C@@H]3C[C@H]4CC[C@@H]3C4)nc2Cc2ccccc2)c(F)c1` [Example T-67]: the inhibition at 0.0025 µM was determined as 47%. In turn, `NS(=O)(=O)c1ccc(-n2nc(CN[C@H](CO)Cc3ccccc3)nc2Cc2ccccc2)c(F)c1` [Example T-44, 4-[5-benzyl-3-({[(1S)-1-benzyl-2-hydroxyethyl]amino}methyl)-1H-124-triazol-1-yl]-3-fluorobenzenesulfonamide] showed an inhibition at 0.0025 µM of 49%. Compound `CCCN(C)Cc1nc(Cc2ccccc2)n(-c2ccc(S(N)(=O)=O)cc2F)n1` [Example T-42, 4-(5-benzyl-3-{[methyl(propyl)amino]methyl}-1H-124-triazol-1-yl)-3-fluorobenzenesulfonamide] returned an inhibition at 0.0025 µM of 42%. For `CC(Cn1cccn1)NCc1nc(Cc2ccccc2)n(-c2ccc(S(N)(=O)=O)cc2F)n1` (stereo not drawn) [Example T-72, 4-[5-benzyl-3-({[1-methyl-2-(1H-pyrazol-1-yl)ethyl]amino}methyl)-1H-124-triazol-1-yl]-3-fluorobenzenesulfonamide] the value was 70%. For `Cc1ccn(CCNCc2nc(Cc3ccccc3)n(-c3ccc(S(N)(=O)=O)cc3F)n2)n1` [Example T-68, 4-[5-benzyl-3-({[2-(3-methyl-1H-pyrazol-1-yl)ethyl]amino}methyl)-1H-124-triazol-1-yl]-3-fluorobenzenesulfonamide] the value was 55%. The same measure for `CC(C)CCNCc1nc(Cc2ccccc2)n(-c2ccc(S(N)(=O)=O)cc2F)n1` [Example T-59, 4-(5-benzyl-3-{[(3-methylbutyl)amino]methyl}-1H-124-triazol-1-yl)-3-fluorobenzenesulfonamide]: 53%. With `Cc1cccc(CC(C)NCc2nc(Cc3ccccc3)n(-c3ccc(S(N)(=O)=O)cc3F)n2)n1` (stereo not drawn) [Example T-78, 4-[5-benzyl-3-({[1-methyl-2-(6-methylpyridin-2-yl)ethyl]amino}methyl)-1H-124-triazol-1-yl]-3-fluorobenzenesulfonamide], at 0.0025 µM the inhibition was 71%.

`C[C@@H]1COCCN1Cc1nc(Cc2ccccc2)n(-c2ccc(S(N)(=O)=O)cc2F)n1` [Example T-41, 4-(5-benzyl-3-{[(3R)-3-methylmorpholin-4-yl]methyl}-1H-124-triazol-1-yl)-3-fluorobenzenesulfonamide] yielded an inhibition at 0.0025 µM of 58%.

`COC1COCCN(Cc2nc(Cc3ccccc3)n(-c3ccc(S(N)(=O)=O)cc3F)n2)C1` (stereo not drawn) [Example T-40, 4-{5-benzyl-3-[(6-methoxy-14-oxazepan-4-yl)methyl]-1H-124-triazol-1-yl}-3-fluorobenzenesulfonamide] registered an inhibition at 0.0025 µM of 49%. For the compound `NS(=O)(=O)c1ccc(-n2nc(CNCc3ccccc3F)nc2Cc2ccccc2)c(F)c1` [Example T-74, 4-(5-benzyl-3-{[(2-fluorobenzyl)amino]methyl}-1H-124-triazol-1-yl)-3-fluorobenzenesulfonamide], 0.0025 µM produced 45% inhibition. For `CCC(NCc1nc(Cc2ccccc2)n(-c2ccc(S(N)(=O)=O)cc2F)n1)c1ccccc1` (stereo not drawn) [Example T-75, 4-(5-benzyl-3-{[(1-phenylpropyl)amino]methyl}-1H-124-triazol-1-yl)-3-fluorobenzenesulfonamide] the value was 51%.

In turn, `COC[C@H]1CCC[C@H]1NCc1nc(Cc2ccccc2)n(-c2ccc(S(N)(=O)=O)cc2F)n1` [Example T-71, 4-[5-benzyl-3-({[(1R2S)-2-(methoxymethyl)cyclopentyl]amino}methyl)-1H-124-triazol-1-yl]-3-fluorobenzenesulfonamide] gave an inhibition at 0.0025 µM of 47%.

With `Cc1cc(CNCc2nc(Cc3ccccc3)n(-c3ccc(S(N)(=O)=O)cc3F)n2)ccc1F` [Example T-49, 4-(5-benzyl-3-{[(4-fluoro-3-methylbenzyl)amino]methyl}-1H-124-triazol-1-yl)-3-fluorobenzenesulfonamide], the inhibition at 0.0025 µM was 49%. For `COc1cccc(CCNCc2nc(Cc3ccccc3)n(-c3ccc(S(N)(=O)=O)cc3F)n2)c1` [Example T-73, 4-[5-benzyl-3-({[2-(3-methoxyphenyl)ethyl]amino}methyl)-1H-124-triazol-1-yl]-3-fluorobenzenesulfonamide] the value was 50%; for `NS(=O)(=O)c1ccc(-n2nc(CNC3CCCCC3)nc2Cc2ccccc2)c(F)c1` [Example T-69, 4-{5-benzyl-3-[(cyclohexylamino)methyl]-1H-124-triazol-1-yl}-3-fluorobenzenesulfonamide], 68%.
